Reference: patent US8524861B2, “Treatment of bacterial infections” (priority 2004, dated 2013)
“Also recorded” adds a separate entry of the source.

Columns and labels:
Format in all cases: cell-based
[1] = system: Staphylococcus aureus, Pseudomonas aeruginosa, and Streptococcus pneumoniae; experiment: Antibacterial activity, overall statements over the test bacteria
From the text: The inventors conducted exhaustive experiments to assess the antibacterial activity of peptides from apolipoproteins and derivatives thereof. Peptides and derivatives from ApoE and ApoB were a particular focus. […] Example 1 illustrates the efficacy of the polypeptides according to the invention compared to apoE141-149 and apoB3359-3367 (i.e. non-tandem repeats) and other peptides derived from apolipoproteins.
The activity of polypeptides in accordance with the invention can be seen in Tables 5, 6, 7 and 8.
(§1) The peptides were examined for antibacterial efficacy against Staphylococcus aureus. To test the efficacy of peptides, dilutions of test peptides or PBS (for use as a control) were prepared in LB broth, and 100 μl aliquots of these placed in 96-well plates. A vial of planktonic bacterial stock was thawed in a 37° C. incubator and diluted to the level previously determined which would produce log phase growth after overnight incubation (see above). 25 μl of this bacterial dilution was then added to the test wells (some wells containing LB broth without peptide were left without any bacterial inoculation, these being used as a blank). After overnight growth, the concentration of bacteria in individual wells was assessed by measuring absorbance at 620 nm, in a microplate spectrophotometer. The average absorbance of wells for specific concentrations of peptides was calculated, and from this the percentage inhibition (relative to untreated wells) was also calculated and plotted against concentration (along with an estimate of error on that % inhibition).
The inventor constructed an expanded library of peptides derived from either apolipoprotein B or apolipoprotein E in order to further evaluate polypeptides in accordance with the invention. Further experiments were then conducted to investigate the antibacterial activity of this peptide library against the bacteria P. aeroginosa, S. aureus and S. pneumoniae. The methods used to determine the IC50 values for each peptide were as described in the Example 1.

Streptococcus pneumoniae = system: Streptococcus pneumoniae
Experimental: as §1, with “inhibition). […] The inventor constructed an expanded library of peptides derived from either apolipoprotein B or apolipoprotein E in order to further evaluate polypeptides in accordance with the invention. Further experiments were then conducted to investigate the antibacterial activity of this peptide library against the bacteria P. aeroginosa, S. aureus and S. pneumoniae. The methods used to determine the IC50 values for each peptide were as described in the Example 1.” for “inhibition).”

[2] = system: Saccharomyces cerevisiae yeast cells (strain GenT01); experiment: Gentronix GreenScreen GC yeast genotoxicity assay; details: concentrations up to and including 100 μM, FIGS. 6A-6C
Experimental: A liquid handling robot is used to produce a serial dilution series of each test compound in a 96-well, black microplate with an optically clear base. […] In addition, a series of genotoxic and cytotoxic standards and non-toxic controls are run to provide internal quality control. The plates are covered with a breathable membrane and incubated overnight, without shaking, at 25° C.
After incubation, the microplates are uncovered and data collected using a Tecan Ultra 384 microplate reader. This instrument provides measurements of light absorbance and fluorescence in microplates; a standard fluorescein filter set (excitation 485/25 and emission 535/25) is used. Absorbance is read at 620 nm and is proportional to cell proliferation (which is lowered by toxic analytes). Fluorescence is proportional to the activity of the DNA repair system (increased by genotoxic analytes). The yeast cultures used are a genetically modified strain that express a green fluorescent protein whenever the cells carry out DNA damage repair. Fluorescence is normalised to the absorbance signal to correct for variation in cell yield caused by any cytolytic activity of the test compounds against the yeast cells. This produces a “fluorescence per cell” measurement termed “brightness”. In addition to the Gentronix Assay yeast strain (GenT01), a control Saccharomyces cerevisiae strain (GenC01) is also used, which is identical except for its ability to produce green fluorescent protein is disabled. This strain is used to provide a control to allow correction for substances which may be either autofluorescent themselves or which induce an autofluorescence in the yeast cells. The data collected is simply transferred into a Excel template where result evaluation sheets are automatically produced. The sheets contain the processed results in both a graphical and tabulated format, with automatic assessment of the result, i.e. positive or negative, and calculation of the lowest effective concentration (LEC), for both genotoxicity and cytotoxicity. […]

## Ac-LRKLRKRLLLRKLRKRLL-NH2 [MU_10]
[1]
  Antibacterial activity, in words, bacterium not specified: particularly effective; also recorded: much greater than that of MU43
Streptococcus pneumoniae
  IC50: 45 µM
[2]
  Genotoxic response in test yeast strain (GenT01): failed to produce any genotoxic response
